{"source": "patent US20160324796A1", "about": "“COMPOSITIONS AND THEIR USE TO TREAT COMPLICATIONS OF ANEURYSMAL SUBARACHNOID HEMMORRHAGE” (Edge Therapeutics, Inc., priority 2007, published 2016)", "origin": "cited, not measured here", "key": {"[1]": {"tested_on": "patients with SAH", "conditions": "cited from earlier work"}, "[2]": {"tested_on": "patients with SAH", "conditions": "cited from earlier work; for patients with primary end point: placebo 27%; for patients with poor outcome (extended Glasgow Outcome Scale score </=4): placebo 24%"}, "[3]": {"tested_on": "R-type calcium current", "conditions": "cited from earlier work"}, "[4]": {"tested_on": "K+ and Na+ currents, and L, P/Q and T-type calcium currents", "conditions": "cited from earlier work"}, "[5]": {"biological_target": "N-type calcium current (Homo sapiens, UniProt Q00975)", "sequence (Q00975 whole entry)": "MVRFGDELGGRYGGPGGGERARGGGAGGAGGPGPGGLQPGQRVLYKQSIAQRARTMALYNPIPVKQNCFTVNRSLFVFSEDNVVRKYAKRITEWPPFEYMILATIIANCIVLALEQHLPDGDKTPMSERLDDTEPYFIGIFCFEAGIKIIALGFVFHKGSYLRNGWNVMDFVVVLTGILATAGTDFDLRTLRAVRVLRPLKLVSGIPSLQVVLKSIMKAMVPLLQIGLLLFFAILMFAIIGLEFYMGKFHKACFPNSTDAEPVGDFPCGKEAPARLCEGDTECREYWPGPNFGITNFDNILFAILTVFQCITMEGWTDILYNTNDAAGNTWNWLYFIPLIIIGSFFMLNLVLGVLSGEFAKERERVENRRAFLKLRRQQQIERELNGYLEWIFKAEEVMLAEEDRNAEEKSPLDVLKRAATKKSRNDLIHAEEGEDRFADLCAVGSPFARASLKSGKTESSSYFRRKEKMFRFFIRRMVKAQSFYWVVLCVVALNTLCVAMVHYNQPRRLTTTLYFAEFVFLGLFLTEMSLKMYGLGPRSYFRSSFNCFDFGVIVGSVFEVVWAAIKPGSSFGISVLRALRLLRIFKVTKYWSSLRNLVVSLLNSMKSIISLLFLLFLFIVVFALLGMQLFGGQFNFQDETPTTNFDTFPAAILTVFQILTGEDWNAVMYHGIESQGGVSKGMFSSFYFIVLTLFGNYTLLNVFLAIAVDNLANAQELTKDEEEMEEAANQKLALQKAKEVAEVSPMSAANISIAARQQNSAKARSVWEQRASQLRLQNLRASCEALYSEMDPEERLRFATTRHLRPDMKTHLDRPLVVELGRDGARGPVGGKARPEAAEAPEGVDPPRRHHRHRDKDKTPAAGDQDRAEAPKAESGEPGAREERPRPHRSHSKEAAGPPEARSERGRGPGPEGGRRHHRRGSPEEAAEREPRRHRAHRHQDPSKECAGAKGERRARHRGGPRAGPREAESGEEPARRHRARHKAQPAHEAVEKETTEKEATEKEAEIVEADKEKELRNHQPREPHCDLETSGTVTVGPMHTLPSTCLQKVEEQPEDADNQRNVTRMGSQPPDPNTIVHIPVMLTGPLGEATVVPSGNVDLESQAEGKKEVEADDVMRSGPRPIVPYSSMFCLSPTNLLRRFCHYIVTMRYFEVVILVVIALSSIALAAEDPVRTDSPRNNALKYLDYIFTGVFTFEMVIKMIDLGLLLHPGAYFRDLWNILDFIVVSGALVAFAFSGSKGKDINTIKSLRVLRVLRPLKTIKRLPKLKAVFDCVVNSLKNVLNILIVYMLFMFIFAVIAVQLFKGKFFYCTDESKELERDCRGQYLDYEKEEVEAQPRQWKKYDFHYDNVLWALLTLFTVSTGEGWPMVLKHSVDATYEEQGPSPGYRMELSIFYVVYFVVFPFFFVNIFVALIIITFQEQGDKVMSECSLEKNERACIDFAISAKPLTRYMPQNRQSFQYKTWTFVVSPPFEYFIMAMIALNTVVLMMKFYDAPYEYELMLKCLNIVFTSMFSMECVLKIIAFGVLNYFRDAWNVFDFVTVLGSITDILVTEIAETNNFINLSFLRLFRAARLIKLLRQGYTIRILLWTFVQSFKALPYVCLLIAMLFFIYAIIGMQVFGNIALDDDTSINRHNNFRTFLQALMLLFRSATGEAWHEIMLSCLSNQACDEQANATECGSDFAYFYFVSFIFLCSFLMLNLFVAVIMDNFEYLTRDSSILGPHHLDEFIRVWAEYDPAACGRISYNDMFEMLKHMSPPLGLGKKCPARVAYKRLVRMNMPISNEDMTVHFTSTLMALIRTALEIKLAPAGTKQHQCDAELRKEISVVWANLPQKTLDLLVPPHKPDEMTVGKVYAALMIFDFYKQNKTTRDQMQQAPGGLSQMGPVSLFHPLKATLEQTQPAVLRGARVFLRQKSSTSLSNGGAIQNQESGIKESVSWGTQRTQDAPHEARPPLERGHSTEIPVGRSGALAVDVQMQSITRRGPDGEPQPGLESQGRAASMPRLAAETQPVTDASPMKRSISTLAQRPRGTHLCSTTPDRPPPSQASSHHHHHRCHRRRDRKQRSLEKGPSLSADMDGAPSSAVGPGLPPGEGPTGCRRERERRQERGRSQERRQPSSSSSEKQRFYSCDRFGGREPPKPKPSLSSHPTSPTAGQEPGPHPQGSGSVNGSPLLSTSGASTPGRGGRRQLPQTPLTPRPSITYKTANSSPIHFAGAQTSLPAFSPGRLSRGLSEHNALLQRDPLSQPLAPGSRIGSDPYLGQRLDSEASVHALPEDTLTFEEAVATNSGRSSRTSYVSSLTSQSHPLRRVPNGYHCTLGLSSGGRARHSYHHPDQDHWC", "conditions": "at 300 nM to 500 nM; cited from earlier work"}}, "note": "Like-named read-outs stand apart in the source and are kept apart here. Ends that are not written are not given here."}
{"compound": "COc1ccccc1Oc1c(NS(=O)(=O)c2ccc(C)cn2)nc(-c2ccnc(-c3nnn[nH]3)c2)nc1OCCO", "note": "[clazosentan]", "values": [{"measurement": "patients meeting primary composite endpoint (week 6)", "setting": "[1]; 5 mg/h up to 14 days, 161 of 764 patients, placebo 25%", "value": 21, "unit": "%"}, {"measurement": "relative risk reduction, primary composite endpoint", "setting": "[1]; 5 mg/h versus placebo, 95% CI -4 to 33, p=0.10", "value": 17, "unit": "%"}, {"measurement": "relative risk reduction, poor functional outcome", "setting": "[1]; 5 mg/h versus placebo, −45 to 4, p=0.10", "value": "−18", "unit": "%"}, {"measurement": "patients with poor functional outcome (GOSE score </=4)", "setting": "[1]; 5 mg/h, placebo 25%", "value": 29, "unit": "%"}, {"measurement": "Mortality (week 12)", "setting": "[1]; 5 mg/h, same in placebo", "value": 6, "unit": "%"}, {"measurement": "odds ratio, primary end point", "setting": "[2]; 5 mg/h versus placebo, 95% CI 0.479-1.289, P=0.340", "value": 0.786}, {"measurement": "odds ratio, poor outcome", "setting": "[2]; 5 mg/h versus placebo, 95% CI 0.546-1.544, P=0.748", "value": 0.918}, {"measurement": "patients with primary end point", "setting": "[2]; 5 mg/h, 47/194", "value": 24, "unit": "%"}, {"measurement": "patients with poor outcome (extended Glasgow Outcome Scale score </=4)", "setting": "[2]; 5 mg/h", "value": 25, "unit": "%"}, {"measurement": "odds ratio, primary end point", "setting": "[2]; 15 mg/h versus placebo, 95% CI 0.275-0.818, P=0.007", "value": 0.474}, {"measurement": "odds ratio, poor outcome", "setting": "[2]; 15 mg/h versus placebo, 95% CI 0.802-2.227, P=0.266", "value": 1.337}, {"measurement": "patients with primary end point", "setting": "[2]; 15 mg/h, 28/188", "value": 15, "unit": "%"}, {"measurement": "patients with poor outcome (extended Glasgow Outcome Scale score </=4)", "setting": "[2]; 15 mg/h", "value": 28, "unit": "%"}]}
{"compound": "SNX-482: toxin from the tarantula Hysterocrates gigas, a 41 amino acid residue peptide with 3 disulfide linkages; putative R-type selective blocker (GVDKAGCRYMFGGCSVNDDCCPRLGCHSLFSYCAWDLTFSD; disulfide (positions not given here); UniProt P56854 1-41, looked up)", "values": [{"measurement": "block of R-type calcium current", "setting": "[3]; neurohypophysial nerve endings, 40 nM", "value": "blocks"}, {"measurement": "effect on R-type current", "setting": "[3]; preparations of the neuronal cell body, retinal ganglion cells and hippocampal pyramidal cells", "value": "no significant effect"}, {"measurement": "effect on K+ and Na+ currents, and L, P/Q and T-type calcium currents", "setting": "[4]", "value": "no effect"}, {"measurement": "block of N-type calcium current", "setting": "[5]", "value": "30-50%"}]}
